{
  "source": "patent US20250163052A1",
  "about": "“cGAS INHIBITORS AND USES THEREOF” (Cornell University, priority 2022, published 2025)",
  "key": {"MEF2C target genes": {"test_system": "MEF2C target genes", "assay": "Single-nuclei RNA-seq of excitatory and inhibitory neurons, overlap with MEF2C target genes", "assay_type": "in vivo, mouse", "details": "P301S mice, 150 mg/kg diet for three months; snRNA-seq", "procedure": "Hippocampi isolation from frozen mouse hippocampi was adapted from a previous study with modifications (Grubman et al., 2019; Habib et al., 2017). All procedures were done on ice or at 4° C. In brief, post-mortem brain tissue was placed in 1500 μl of Sigma nuclei PURE lysis buffer (Sigma, NUC201-1KT) and homogenized with a Dounce tissue grinder (Sigma, D8938-1SET) with 20 strokes with pestle A and 15 strokes with pestle B. The homogenized tissue was filtered through a 35-μm cell strainer, then centrifuged at 600 g for 5 min at 4° C. and washed three times with 1 ml of PBS containing 1% BSA, 20 mM DTT and 0.2 U μl^−1 recombinant RNase inhibitor. […] The FACS-sorted suspension of DAPI-stained nuclei were counted and diluted to a concentration of 1000 nuclei per microliter in PBS containing 0.04% BSA. […]\nGene counts were obtained by aligning reads to the mm10 genome with Cell Ranger software (v.3.1.0) (10× Genomics). To account for unspliced nuclear transcripts, reads mapping to pre-mRNA were counted. […] We further removed genes expressed in no more than 2 cells, cells with unique gene counts over 4,000 or less than 200, and cells with high fraction of mitochondrial reads (>5%). […] To identify gene ontology and pathways enriched in the differentially expressed genes (DEGs), DEGS were analysed using (MSigDB) gene annotation database (Liberzon et al., 2011; Subramanian et al., 2005). […]"}, "[1]": {"assay": "Metabolic stability in human liver microsomes"}, "P301S mice": {"test_system": "P301S mice", "assay": "Novel object recognition test in P301S mice fed TDI-6570 diet", "assay_type": "in vivo, mouse", "details": "150 mg/kg diet for three months", "excerpt": "P301S transgenic mice (https://www.jax.org/strain/008169) were crossed with cGas knockout mice (https://www.jax.org/strain/026554) to generate littermate P301S cGas+/+ mice, P301S cGas+/− and littermate P301S cGas−/− mice, as well as non-transgenic littermates. Mice of both sexes were used behavioral, histological and biochemical analyses. Mice underwent behavioral testing at 7 to 8 months of age and had not been used for any other experiments. At 9 to 10 months of age, the same mice were used for pathology and RNA-seq studies. For TDI-6570 in vivo treatment, P301S and non-transgenic littermate mice at 6-7 months were used for diet experiments and were assayed for behavior and histology at 9-10 months. Mice were housed under specific pathogen-free conditions under a 12 h light-dark cycle and all mouse protocols were approved by the Institutional Animal Care and Use Committee, University of California, San Francisco.\nFor experiments involving TDI-6570 treatment, male P301S and Non-transgenic littermates fed with TDI-6570 or control diet were used.\nMice were habituated to opaque open field arenas (40×40 cm) for two 10-minute trials spaced on the two days leading up to object recognition. […] An experimenter blind to the groups manually scored the time mice spent exploring each object. Preference was calculated based on the total time an individual mouse spent exploring both objects. […]"}},
  "data": [
    {"smiles": "Cn1c2c(c3ccc(Cl)c(F)c31)CN(C(=O)CO)CC2", "note": "[TDI-6570, reference compound]", "values": [
      {"measurement": "Enrichment of MEF2C target genes in DEGs of excitatory and inhibitory neurons", "setting": "MEF2C target genes", "result": "strong enrichment of MEF2C target genes"},
      {"measurement": "Remaining (NCF = 60 min)", "setting": "[1]; human liver microsomes, 60 min, no co-factor (no NADPH)", "result": 120.6, "unit": "%"},
      {"measurement": "Remaining (T = 60 min)", "setting": "[1]; human liver microsomes, 60 min with NADPH", "result": 11.3, "unit": "%"},
      {"measurement": "CLint(liver)", "setting": "[1]; human liver microsomes, scaled from CLint(mic)", "result": 68.2, "unit": "mL/min/kg"},
      {"measurement": "CLint(mic)", "setting": "[1]; human, liver microsomes", "result": 75.8, "unit": "µL/min/mg"},
      {"measurement": "T½", "setting": "[1]; human, liver microsomes", "result": 18.3, "unit": "min"},
      {"measurement": "Defect in recognizing the novel object (novel object recognition test)", "setting": "P301S mice", "result": "rescued"}
    ]}
  ]
}
